IC50 data for 25 compounds are collected here from US20050009840A1 (SUGEN, INC., priority 2003, published 2005).

SMILES strings stand for the structures. pIC50: −log10 of the molar value. Some results are limits rather than exact numbers.

A word on the pIC50: it is the negative decadic logarithm of the IC50, by convention in mol/L. By IC50 is commonly meant the concentration needed to halve the response being measured.

For one assay, the target named is T1, Met kinase domain (GST fusion protein) (Homo sapiens, UniProt P08581).
T1 construct: Purified GST fusion protein containing the Met kinase domain
T1 sequence (P08581 1078-1345 limits assumed): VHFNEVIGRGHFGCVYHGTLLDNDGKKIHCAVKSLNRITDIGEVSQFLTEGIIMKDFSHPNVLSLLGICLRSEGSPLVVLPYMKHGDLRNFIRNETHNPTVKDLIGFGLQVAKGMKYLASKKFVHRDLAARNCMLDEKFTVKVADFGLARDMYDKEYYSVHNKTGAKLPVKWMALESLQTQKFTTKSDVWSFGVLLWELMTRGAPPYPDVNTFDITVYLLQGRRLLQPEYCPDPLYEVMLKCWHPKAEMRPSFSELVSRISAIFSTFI
Kind of assay: Met transphosphorylation assay (ELISA, poly(glu-tyr) substrate).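 Further: Cell-free ELISA with plate-bound poly(Glu:Tyr 4:1) phosphorylated by GST-fused Met kinase domain plus ATP and Mn2+, phosphotyrosine detected by anti-phosphotyrosine antibody with HRP and ABTS read-out.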 The assay is classed as biochemical. The note with it: Table 2; read-out: Met IC50. A general note: In an ELISA, binding on a coated surface is turned into a signal by an enzyme label.
Take `CC(Oc1cc(-c2cccc(C(=O)N3CCN(C)CC3)c2)cnc1N)c1c(F)ccc(F)c1Cl` (stereo not shown) [Example I-346, (3-{6-Amino-5-[1-(2-chloro-3,6-difluoro-phenyl)-ethoxy]-pyridin-3-yl}-phenyl)-(4-methyl-piperazin-1-yl)-pnl methanone]: the pIC50 is 6.72.
Turning to `CC(Oc1cc(-c2ccc(OC3CCN(C)CC3)cc2)cnc1N)c1c(Cl)ccc(F)c1Cl` (stereo not shown) [Example I-363, 3-[1-(2,6-Dichloro-3-fluoro-phenyl)-ethoxy]-5-[4-(1-methyl-piperidin-4-yloxy)-phenyl]-pyridin-2-ylamine], the pIC50 was 7.28.
Take `CC(Oc1cc(-c2ccc(OCC3CCCN(C)C3)cc2)cnc1N)c1c(Cl)ccc(F)c1Cl` (stereo not shown) [Example I-361, 3-[1-(2,6-Dichloro-3-fluoro-phenyl)-ethoxy]-5-[4-(1-methyl-piperidin-3-ylmethoxy)-phenyl]-pyridin-2-ylamine]: the pIC50 is 7.37.
With `CCN(CC)CCS(=O)(=O)Nc1ccc(-c2cnc(N)c(OC(C)c3c(F)ccc(F)c3Cl)c2)cc1` (stereo not shown) [Example I-329, 2-Diethylamino-ethanesulfonic acid (4-{6-amino-5-[1-(2-chloro-3,6-difluoro-phenyl)-ethoxy]-pyridin-3-yl}-phenyl)-amide], the pIC50 was 7.02.
With `CC(Oc1cc(-c2ccc(OCCC3CCCN3C)cc2)cnc1N)c1c(Cl)ccc(F)c1Cl` (stereo not shown) [Example I-356], the pIC50 is 7.10.
Still for that read-out and setting: the figure for `CC(Oc1cc(-c2ccc(NS(=O)(=O)CCNC3CC3)cc2)cnc1N)c1c(Cl)ccc(F)c1Cl` (stereo not shown) [Example I-297, 2-Cyclopropylamino-ethanesulfonic acid (4-{6-amino-5-[1-(2,6-dichloro-3-fluoro-phenyl)-ethoxy]-pyridin-3-yl}-phenyl)-amide] is 6.79.

The same assay, now with this note: plain numbers in column Met IC50 (μM) of Table 2; read-out: Met IC50.
In the case of `CC(Oc1cc(OCC2CCCCC2)cnc1N)c1c(F)ccc(F)c1Cl` (stereo not shown) [Example I-534, 3-[1-(2-Chloro-3,6-difluoro-phenyl)-ethoxy]-5-cyclohexylmethoxy-pyridin-2-ylamine], the IC50 amounted to 5.97 µM.
Turning to `Nc1ncc(-c2ccccn2)cc1OCc1c(Cl)cccc1Cl` [Example I-505, 5-′(2,6-Dichloro-benzyloxy)-[2,3′]bipyridinyl-6′-ylamine], the IC50 stood at 2.84 µM.
With `CC(Oc1cc(C#CCNC(=O)NC2CCN(C)CC2)cnc1N)c1c(Cl)ccc(F)c1Cl` (stereo not shown) [Example I-416, 1-(3-{6-Amino-5-[1-(2,6-dichloro-3-fluoro-phenyl)-ethoxy]-pyridin-3-yl}-prop-2-ynyl)-3-(1-methyl-piperidin-4-yl)-urea], the IC50 is 0.051 µM.
On to `CC(Oc1cc(-c2cncnc2)cnc1N)c1c(F)ccc(F)c1Cl` (stereo not shown) [Example I-526, 3-[1-(2-Chloro-3,6-difluoro-phenyl)-ethoxy]-5-pyrimidin-5-yl-pyridin-2-ylamine], for which the IC50 was found to be 0.552 µM.
Consider `Nc1ncc(-c2ccccn2)cc1OCc1c(F)ccc(F)c1Cl` [Example I-500, 5′-(2-Chloro-3,6-difluoro-benzyloxy)-[2,3′]bipyridinyl-6′-ylamine], for which the IC50 was found to be 1.8 µM.
Take `CC(Oc1cc(-c2ccc(N)nc2)cnc1N)c1c(Cl)ccc(F)c1Cl` (stereo not shown) [Example I-510, 5-[1-(2,6-Dichloro-3-fluoro-phenyl)-ethoxy]-[3,3′]bipyridinyl-6,6′-diamine]: the IC50 was 0.0167 µM.
For `CC(Oc1cc(C#CCNC(=O)CN2CCOCC2)cnc1N)c1c(Cl)ccc(F)c1Cl` (stereo not shown) [Example I-425, N-(3-{6-Amino-5-[1-(2,6-dichloro-3-fluoro-phenyl)-ethoxy]-pyridin-3-yl}-prop-2-ynyl)-2-morpholin-4-yl-acetamide], the 50% inhibitory concentration (IC50) turned out to be 0.027 µM.

Still in this assay, the particulars now being: read-out: Met IC50.
Regarding `CC(Oc1nc(-c2ccc(C(=O)N3CCC(N4CCCC4)CC3)cc2)cnc1N)c1c(Cl)ccc(F)c1Cl` (stereo not shown) [II-152, (4-{5-Amino-6-[1-(2,6-dichloro-3-fluoro-phenyl)-ethoxy]-pyrazin-2-yl}-phenyl)-(4-pyrrolidin-1-yl-piperidin-1-yl)-methanone], the pIC50 was 6.96.
Regarding `CC(Oc1nc(-c2ccc(C(=O)N3CC[C@@H](N)C3)cc2)cnc1N)c1c(Cl)cccc1Cl` (stereo partly drawn) [II-164, (4-{5-Amino-6-[1-(2,6-dichloro-phenyl)-ethoxy]-pyrazin-2-yl}-phenyl)-((R)-3-aminopyrrolidin-1-yl)-methanone], the pIC50 was 6.82.
Still for that read-out and setting: the value for `CC(Oc1cc(-c2cccc(C(=O)N3CCC(N4CCCC4)CC3)c2)cnc1N)c1c(Cl)ccc(F)c1Cl` (stereo not shown) [II-139, (3-{6-Amino-5-[1-(2,6-dichloro-3-fluoro-phenyl)-ethoxy]-pyridin-3-yl}-phenyl)-(4-pyrrolidin-1-yl-piperidin-1-yl)-methanone] was 7.15; that for `Nc1ncc(-c2ccc(C(=O)N3CCC[C@@H]3CNCC3CC3)cc2)cc1OCc1c(Cl)cccc1Cl` [Example I-49, {4-[6-Amino-5-(2,6-dichloro-benzyloxy)-pyridin-3-yl]-phenyl}-{(2R)-2-[(cyclopropylmethyl-amino)-methyl]-pyrrolidin-1-yl}-methanone] was 6.43.
Consider `CN(C)[C@@H]1CCN(C(=O)c2ccc(-c3cnc(N)c(OCc4c(Cl)cccc4Cl)c3)cc2)C1` [Example I-44, {4-[6-Amino-5-(2,6-dichloro-benzyloxy)-pyridin-3-yl]-phenyl}-[(3R)-3-dimethylamino-pyrrolidin-1-yl]-methanone], for which the pIC50 is 6.19.
Turning to `N#Cc1ccccc1COc1cc(-c2ccc(O)cc2)cnc1N` [Example I-131, 2-[2-Amino-5-(4-hydroxy-phenyl)-pyridin-3-yloxymethyl]-benzonitrile], the pIC50 is 4.72.
With `Nc1ncc(-c2cccc(C(=O)N3CCC[C@H]3CN3CCCC3)c2)nc1OCc1c(F)ccc(F)c1Cl` [II-57, {3-[5-Amino-6-(2-chloro-3,6-difluoro-benzyloxy)-pyrazin-2-yl]-phenyl}-[(2S)-pyrrolidin-1-ylmethyl-pyrrolidin-1-yl]-methanone], the pIC50 is 6.20.
Regarding `Nc1ncc(-c2ccccc2)cc1OCc1c(F)cccc1Cl` [Example I-103, 3-(2-Chloro-8-fluoro-benzyloxy)-5-phenyl-pyridin-2-ylamine], the pIC50 is 5.10.
As to `Nc1ncc(-c2ccccc2)cc1OCc1cccc(C(F)(F)F)c1Cl` [Example I-94, 3-(2-Chloro-3-trifluoromethyl-benzyloxy)-5-phenyl-pyridin-2-ylamine], the pIC50 is under 4.70.
Same read-out and setting: the figure for `CC(=O)N1CCN(C(=O)c2ccc(-c3cnc(N)c(OCc4ccc(Cl)cc4Cl)c3)cc2)CC1` [Example I-178, 1-(4-{4-[6-Amino-5-(2,4-dichloro-benzyloxy)-pyridin-3-yl]-benzoyl}-piperazin-1-yl)-ethanone] is 5.78; for `CC(Oc1nc(-c2cccc(C(=O)NCCN3CCCC3)c2)cnc1N)c1c(Cl)ccc(F)c1Cl` (stereo not shown) [II-133, 3-{5-Amino-6-[1-(2,6-dichloro-3-fluoro-phenyl)-ethoxy]-pyrazin-2-yl}-N-(2-pyrrolidin-1-yl-ethyl)-benzamide] it is 6.77.
Take `CC(Oc1nc(-c2ccc(C(=O)N3C[C@@H](C)N[C@@H](C)C3)cc2)cnc1N)c1c(Cl)cccc1Cl` (stereo partly drawn) [II-159, (4-{5-Amino-6-[1-(2,6-dichloro-phenyl)-ethoxy]-pyrazin-2-yl}-phenyl)-((3R,5S)-3,5-dimethyl-piperazin-1-yl)-methanone]: the pIC50 is 6.85.
